The values below come from paper PMC10459042, “Synthesis of 1,2,3-Triazole-Containing Methoxylated Cinnamides and Their Antileishmanial Activity against the Leishmania braziliensis Species” (Pharmaceuticals, 2023).

Values after ≈ are worked out from the molar mass of the structure shown.

Data set [1] relates to L. braziliensis-infected macrophages. The data set is described as follows: Treatment of infected macrophages. In kind it is cell-based, Leishmania braziliensis. The following applies: 48 h at 37 °C; for Number of Amastigotes per Cell after treatment: untreated 10.3; for Percentage of Infected Macrophages after Treatment: untreated 92.8. The method, then:
Murine macrophages (5 × 10^5 cells) were plated on round glass coverslips in 24-well plates in RPMI 1640 medium with added 20% FBS and 20 mmol/L L-glutamine at pH 7.4 and incubated for 24 h at 37 °C in 5% CO2. Promastigotes were added to the wells (at a ratio of 10 parasites per macrophage), and cultures were incubated for 48 h at 37 °C in a 5% CO2 environment. Free parasites were removed by extensive washing with RPMI 1640 medium, and the infected macrophages were treated with Compound 28 or AmpB (0, 1.0, 2.5 and 5.0 µg/mL in both cases) for 48 h at 37 °C in 5% CO2.
(§1) To evaluate the inhibition of infection, promastigotes (5 × 10^6 cells) were first incubated with Compound 28 or AmpB (0, 1.0, 2.5 and 5.0 µg/mL in both cases) for 4 h at 24 °C; these were then used to infect murine macrophages (at a ratio of 10 parasites per macrophage) and incubated for 24 h at 37 °C in 5% CO2. Then, cells were fixed with 4% paraformaldehyde, washed, and stained with Giemsa. The percentage of infected macrophages and the number of recovered amastigotes were determined by counting 200 cells, in triplicate, using an optical microscope.

The nature of data set [2]: Cytotoxicity in mammalian cells (MTT). The following applies: mouse; murine macrophages, 48 h at 37 °C in 5% CO2, MTT, mean ± standard deviation. In kind it is cell-based. The method, then:
(§2) The in vitro antileishmanial activity was evaluated by incubating the promastigotes or axenic amastigotes (1 × 10^6 cells/well) with the 24 synthetic derivatives (Compounds 5–28; 0 to 600 µg/mL) in 96-well culture plates (Nunc, Nunclon, Roskilde, Denmark) for 48 h at 24 °C. Due to the difficulty in obtaining a high concentration of murine macrophages, the cytotoxicity experiment was evaluated by incubating such cells (5 × 10^5 per mL) with Compound 28 (0 to 600 µg/mL), which presented the best antileishmanial activity, for 48 h at 37 °C in a 5% CO2 environment. AmpB (0 to 10 µg/mL; Sigma-Aldrich, St. Louis, MO, USA) was used as a positive control in both experiments. The cell viability was assessed using the 3-(4.5-dimethylthiazol-2-yl)-2.5-diphenyl tetrazolium bromide (MTT, Sigma-Aldrich, St. Louis, MO, USA) method. The optical density (OD) values were read using a microplate spectrophotometer (Molecular Devices, Spectra Max Plus, San Jose, CA, USA) at 570 nm. Results were entered into Microsoft Excel (version 10.0) spreadsheets, and the 50% Leishmania and macrophage inhibitory concentrations (IC50 and CC50, respectively) were calculated by applying a sigmoidal regression of the dose–response curve. The SI was calculated by dividing the CC50 with the respective IC50 values.

Data set [3] has as its system L. braziliensis promastigotes infecting murine macrophages. Nature of the data set: Inhibition of infection (parasites pre-incubated with compound, then used to infect macrophages). In kind it is cell-based, Leishmania braziliensis. The following applies: for Number of Amastigotes per Cell using pre-incubated parasites: untreated 8.9; for Percentage of Infected Macrophages Using Pre-Incubated Parasites: untreated 90.5. The method, then:
as §1

Data set [4] concerns Leishmania braziliensis stationary promastigotes. Nature of the data set: In vitro antileishmanial activity against promastigotes (MTT). The format is cell-based. The method, then: The study was approved by the Committee for the Ethical Handling of Research Animals from the Federal University of Minas Gerais (protocol number 085/2017). Leishmania braziliensis (MHOM/BR/1975/M2904) promastigotes were grown at 24 °C in Schneider’s medium (Sigma-Aldrich, USA) supplemented with 20% heat-inactivated fetal bovine serum (FBS, Sigma-Aldrich, USA) and 20 mmol/L L-glutamine at pH 7.4 [65].
as §2

Data set [5] has as its system Leishmania braziliensis axenic amastigotes. Nature of the data set: In vitro antileishmanial activity against axenic amastigotes (MTT). In kind it is cell-based. The method, then: To obtain the axenic amastigotes, 1 × 10^9 stationary promastigotes were washed three times in sterile phosphate-buffered saline (PBS) and incubated in 5 mL FBS for 48 h at 37 °C. Parasites were washed with cold PBS, and their morphology was evaluated with an optical microscope after Giemsa staining as previously described.
as §2

Data set [6] concerns L. braziliensis promastigotes. The data set is described as follows: ROS production in promastigotes (H2DCFDA). The format is cell-based, Leishmania braziliensis. Conditions: H2O2-incubated promastigotes. The method, then:
After treatment with Compound 28 (at a concentration corresponding to one IC50 value) for 48 h at 24 °C, L. braziliensis promastigotes were washed with PBS, and the parasite concentration was adjusted to 3 × 10^6 cells per well. H2DCFDA (Sigma-Aldrich, St. Louis, MO, USA) was then added and incubated for 30 min in the dark, and samples were read in a fluorometric microplate reader (FLx800, BioTek Instruments, Winooski, VT, USA) with excitation and emission wavelengths of 485 and 528 nm, respectively. Parasites that were untreated or treated with Compound 28 and not labeled with the fluorescent probe were used as the blank.
Figure 4 ΔΨm and ROS production in Leishmania after exposure to Compound 28. Leishmania braziliensis promastigotes were not exposed (negative control) or exposed to Compound 28 (at a concentration corresponding to the IC50 value) for 48 h. (A) Depolarization of ΔΨm was evaluated using the JC-1 fluorescent probe. Samples were analyzed fluorometrically, and the results are expressed as the ratio of red/green fluorescence. FCCP ([…]) was used as a positive control. (B) ROS production was evaluated using the H2DCFDA probe. The fluorescence intensity was measured by fluorimetry, and the results are expressed as the fold increase in the ROS level compared with the non-treated control. H2O2-treated parasites were used as a positive control. […]

For data set [7], the system named is L. braziliensis-infected macrophages. The data set is described as follows: ROS levels in Leishmania-infected macrophages (H2DCFDA). In kind it is cell-based, Leishmania braziliensis. The following applies: H2O2 0.02 µg/mL (0.5 µmol/L). The method, then: Macrophages (1 × 10^6 cells/mL) were incubated in 96-well culture plates (Nunc, Nunclon, Roskilde, Denmark) and infected with L. braziliensis promastigotes (at a ratio of 10 parasites per cell). The infected macrophages were either left untreated or treated with Compound 28 (at a concentration of 5.0 µg/mL) for 48 h at 37 °C in 5% CO2. The cells were washed with PBS and incubated with 20 μmol/L H2DCFDA (Molecular Probes, Eugene, Oregon, USA) for 30 min in the dark. The fluorescence intensity was measured using a spectrofluorometer (FLx800; BioTek Instruments, Winooski, VT, USA) at 485 nm excitation and 528 nm emission. As a positive control, the infected macrophages were incubated with H2O2 at a concentration of 0.02 µg/mL (0.5 µmol/L). Parasites that were untreated with Compound 28 and not labeled with the fluorescent probe were used as the sample blank.
Figure 3 Production of ROS in L. braziliensis-infected macrophages treated with Compound 28. Leishmania braziliensis-infected macrophages (1 × 10^5 cells) were incubated with Compound 28 (5.0 µg/mL) for 48 h at 37 °C in a 5% CO2 environment. Subsequently, 2′,7′-dichlorodihydrofluorescein diacetate (H2DCFDA, 9.7 μg/mL) was added for 30 min under dark conditions. The fluorescence levels were measured in a spectrofluorometer at 485/528 nm. H2O2 (0.5 µmol/L) was used as a positive control. […]

Data set [8] relates to Leishmania braziliensis promastigotes. Nature of the data set: Depolarization of mitochondrial membrane potential (ΔΨm), JC-1. In kind it is cell-based. The following applies: FCCP 1.3 µg/mL (5.0 µmol/L) for 20 min; non-treated parasites 7.2. As for the experimental part: Leishmania braziliensis promastigotes (1 × 10^7 cells/mL) were treated with compound 28 (at a concentration corresponding to one IC50 value) for 48 h at 24 °C. The parasites (3 × 10^6 cells/mL) were then labeled with JC-1 (5 µg/mL, Sigma-Aldrich, St. Louis, MO, USA) for 30 min at 37 °C. After washing twice with PBS to remove the non-internalized dye, the samples were added to a black 96-well plate, and the ΔΨm was analyzed in a spectrofluorometer (FLx800, BioTek Instruments, Winooski, VT, USA) with an excitation filter of 485 nm and emission wavelength of 528 nm and […] to measure the green and red fluorescence, respectively. The ΔΨm was determined using the ratio between the red/green fluorescence intensity. Parasites that were exposed to 1.3 µg/mL (5.0 µmol/L) of FCCP (Sigma-Aldrich, St. Louis, MO, USA) for 20 min were used as a control. […]
Figure 4 ΔΨm and ROS production in Leishmania after exposure to Compound 28. […] (A) Depolarization of ΔΨm was evaluated using the JC-1 fluorescent probe. Samples were analyzed fluorometrically, and the results are expressed as the ratio of red/green fluorescence. […] (B) ROS production was evaluated using the H2DCFDA probe. The fluorescence intensity was measured by fluorimetry, and the results are expressed as the fold increase in the ROS level compared with the non-treated control. […]

The mark [9] stands for this setting: parasites pre-incubated with 2.5 µg/mL at 24 °C.
Where [10] appears, read: parasites pre-incubated with 5.0 µg/mL at 24 °C.

The term CC50 denotes the concentration at which the toxic effect on the cells reaches its halfway point. Read a low CC50 as harm at low concentration. A word on the IC50: it is the concentration that inhibits the measured activity by half. High values mean lower potency, low ones higher potency.

As for `C[C@@H]1[C@H](O)[C@@H](C)/C=C/C=C/C=C/C=C/C=C/C=C/C=C/[C@H](O[C@@H]2O[C@H](C)[C@@H](O)[C@H](N)[C@@H]2O)C[C@@H]2O[C@](O)(C[C@@H](O)C[C@@H](O)[C@H](O)CC[C@@H](O)C[C@@H](O)CC(=O)O[C@H]1C)C[C@H](O)[C@H]2C(=O)O` [Amphotericin B, amphotericin B, reference compound], the “Number of Amastigotes per Cell after treatment” value is recorded as 4.2 in data set [1] (1.0 µg/mL), 3.5 in data set [1] (2.5 µg/mL) and 1.8 in data set [1] (5.0 µg/mL). Also, the results for the “Percentage of Infected Macrophages after Treatment” value in data set [1] (1.0 µg/mL), in data set [1] (2.5 µg/mL) and in data set [1] (5.0 µg/mL) were 39.1%, 27.6% and 19.8%, respectively. The compound further displayed a CC50 at 48 h in data set [2] of 8.9 ± 0.8 µg/mL (≈ 9.63 µM). Also, the figures for the “Number of Amastigotes per Cell using pre-incubated parasites” value in data set [3] (setting [9]) and in data set [3] (setting [10]) were 6.5 and 5.3, respectively. Besides, the “Percentage of Infected Macrophages Using Pre-Incubated Parasites” value in data set [3] (setting [9]) is on record as 67.6%; in data set [3] (setting [10]), 51.4%. Moreover, the “Selectivity index (SI), ratio CC50/IC50, promastigotes” value in data set [4] (CC50 murine macrophages / IC50 promastigotes) came out at 9.1. The IC50 in data set [4] (Leishmania braziliensis, 48 h at 24 °C, MTT, mean ± standard deviation) is 0.974 ± 0.2 µg/mL (≈ 1.05 µM); in data set [5] (Leishmania braziliensis, 48 h, 48 h at 24 °C, MTT, mean ± standard deviation), 1.3 ± 0.4 µg/mL (≈ 1.41 µM). Further, in data set [5] (CC50 murine macrophages / IC50 axenic amastigotes), the “Selectivity index (SI), ratio CC50/IC50, axenic amastigotes” value was determined as 6.8.
As to `OO` [Compound H2O2, H2O2, reference compound], the “Fold increase in ROS levels compared with untreated parasites (positive control)” value in data set [6] is reported as 1.6 fold. Further, the “Increase in ROS production in infected cells (positive control)” value in data set [7] is reported as 41.4%.
`N#CC(C#N)=NNc1ccc(OC(F)(F)F)cc1` [FCCP, carbonyl cyanide-p-trifluoromethoxyphenylhydrazone, reference compound]: the “ΔΨm, JC-1 ratio of red/green fluorescence (positive control)” value in data set [8] was determined as 3.4.
